System: HEK293T cells carrying the ATF4 luciferase reporter
Assay: ATF4-Luc assay (ATF4 luciferase reporter, tunicamycin-treated cells)
Assay type: cell-based
Conditions: Homo sapiens, HEK-293T, 1 μg/mL tunicamycin, 7 hours
Procedure: In order to test exemplary compounds of the invention in a cellular context, a stable VWMD cell line was first constructed. The ATF4 reporter was prepared by fusing the human full-length ATF4 5′-UTR (NCBI Accession No. BC022088.2) in front of the firefly luciferase (FLuc) coding sequence lacking the initiator methionine as described in Sidrauski et al (eLife 2013). The construct was used to produce recombinant retroviruses using standard methods and the resulting viral supermatant was used to transduce ITEK293T cells, which were then subsequently selected with puromycin to generate a stable cell line.
HTEK293T cells carrying the ATF4 luciferase reporter were plated on polylysine coated 384-well plates (Greiner Bio-one) at 30,000 cells per well. Cells were treated the next day with 1 μg/mL tunicamycin and 200 nM of a compound of Formula (I) for 7 hours. Luminescence was measured using One Glo (Promega) as specified by the manufacturer. Cells were maintained in DMEM with L-glutamine supplemented with 10% heat-inactivated FBS (Gibco) and Antibiotic-Antimycotic solution (Gibco).
Table 2 below summarizes the EC50 data obtained using the ATF4-Luc assay for exemplary compounds of the invention.

Structure (SMILES)	EC50
CN(C)Cc1ccnc(C(=O)NC23CCC(NC(=O)COc4ccc(Cl)c(F)c4)(CC2)CC3)c1 [Compound 974, N-{4-[2-(4-chloro-3-fluorophenoxy)acetamido]bicyclo[2.2.2]octan-1-yl}-4-[(dimethylamino)methyl]pyridine-2-carboxamide]	> 2000 nM
NCc1ccnc(C(=O)NC23CCC(NC(=O)COc4ccc(Cl)c(F)c4)(CC2)CC3)c1 [Compound 975, 4-(aminomethyl)-N-{4-[2-(4-chloro-3-fluorophenoxy)acetamido]bicyclo[2.2.2]octan-1-yl}pyridine-2-carboxamide]	< 50 nM
O=C(COc1ccc(Cl)c(F)c1)NC12CCC(NC(=O)c3cc4cccn4cn3)(CC1)C[C@@H]2O [Compound 976, N-{(3S)-4-[2-(4-chloro-3-fluorophenoxy)acetamido]-3-hydroxybicyclo[2.2.2]octan-1-yl}pyrrolo[1,2-c]pyrimidine-3-carboxamide]	50 to 250 nM
O=C(COc1ccc(Cl)c(F)c1)NC12CCC(NC(=O)c3ccnc(CO)c3)(CC1)CC2 [Compound 977, N-{4-[2-(4-chloro-3-fluorophenoxy)acetamido]bicyclo[2.2.2]octan-1-yl}-2-(hydroxymethyl)pyridine-4-carboxamide]	> 2000 nM
CC(C)(C)OC(=O)NCc1ccnc(C(=O)NC23CCC(NC(=O)COc4ccc(Cl)c(F)c4)(CC2)CC3)c1 [Compound 978, tert-butyl {[2-({4-[2-(4-chloro-3-fluorophenoxy)acetamido]bicyclo[2.2.2]octan-1-yl}carbamoyl)pyridin-4-yl]methyl}carbamate]	> 2000 nM
CCc1cnc(C(=O)NC23CCC(NC(=O)COc4ccc(Cl)c(F)c4)(CC2)CC3)cn1 [Compound 979, N-{4-[2-(4-chloro-3-fluorophenoxy)acetamido]bicyclo[2.2.2]octan-1-yl}-5-ethylpyrazine-2-carboxamide]	> 2000 nM
O=C(COc1ccc(Cl)c(Cl)c1)NC12CCC(NC(=O)c3ccc(C(F)F)cn3)(CC1)CC2 [Compound 980, N-{4-[2-(3,4-dichlorophenoxy)acetamido]bicyclo[2.2.2]octan-1-yl}-5-(difluoromethyl)pyridine-2-carboxamide]	50 to 250 nM
O=C(COc1ccc(Cl)c(F)c1)NC12CCC(NC(=O)c3cccc(CO)c3)(CC1)CC2 [Compound 981, N-{4-[2-(4-chloro-3-fluorophenoxy)acetamido]bicyclo[2.2.2]octan-1-yl}-3-(hydroxymethyl)benzamide]	250 to 1000 nM
O=C(COc1ccc(Cl)c(F)c1)NC12CCC(NC(=O)c3cccc(O)c3)(CC1)CC2 [Compound 982, N-{4-[2-(4-chloro-3-fluorophenoxy)acetamido]bicyclo[2.2.2]octan-1-yl}-3-hydroxybenzamide]	250 to 1000 nM
O=C(COc1ccc(Cl)c(F)c1)NC12CCC(NC(=O)c3cc(C(F)F)no3)(CC1)CC2 [Compound 983, N-{4-[2-(4-chloro-3-fluorophenoxy)acetamido]bicyclo[2.2.2]octan-1-yl}-3-(difluoromethyl)-1,2-oxazole-5-carboxamide]	250 to 1000 nM
O=C(COc1ccc(Cl)c(F)c1)NC12CCC(NC(=O)c3ccc4c(c3)OC(F)(F)O4)(CC1)C[C@@H]2O [Compound 984, N-{(3S)-4-[2-(4-chloro-3-fluorophenoxy)acetamido]-3-hydroxybicyclo[2.2.2]octan-1-yl}-2,2-difluoro-2H-1,3-benzodioxole-5-carboxamide]	< 50 nM
O=C(COc1ccc(Cl)c(Cl)c1)NC12CCC(NC(=O)c3ccc4c(c3)OC(F)(F)O4)(CC1)C[C@@H]2O [Compound 985, N-{(3S)-4-[2-(3,4-dichlorophenoxy)acetamido]-3-hydroxybicyclo[2.2.2]octan-1-yl}-2,2-difluoro-2H-1,3-benzodioxole-5-carboxamide]	< 50 nM
O=C(COc1ccc(Cl)c(F)c1)NC12CCC(NC(=O)c3cnc(C(F)F)cn3)(CC1)C[C@@H]2O [Compound 986, N-{(3S)-4-[2-(4-chloro-3-fluorophenoxy)acetamido]-3-hydroxybicyclo[2.2.2]octan-1-yl}-5-(difluoromethyl)pyrazine-2-carboxamide]	< 50 nM
O=C(COc1ccc(Cl)c(Cl)c1)NC12CCC(NC(=O)c3ccc(C(F)F)nc3)(CC1)C[C@@H]2O [Compound 987, N-{(3S)-4-[2-(3,4-dichlorophenoxy)acetamido]-3-hydroxybicyclo[2.2.2]octan-1-yl}-6-(difluoromethyl)pyridine-3-carboxamide]	< 50 nM
O=C(COc1ccc(Cl)c(F)c1)NC12CCC(NC(=O)c3ccc(C(F)F)nc3)(CC1)C[C@@H]2O [Compound 988, N-{(3S)-4-[2-(4-chloro-3-fluorophenoxy)acetamido]-3-hydroxybicyclo[2.2.2]octan-1-yl}-6-(difluoromethyl)pyridine-3-carboxamide]	50 to 250 nM
O=C(COc1ccc(Cl)c(F)c1)NC12CCC(NC(=O)c3cnc(C4CC4)o3)(CC1)CC2 [Compound 989, N-{4-[2-(4-chloro-3-fluorophenoxy)acetamido]bicyclo[2.2.2]octan-1-yl}-2-cyclopropyl-1,3-oxazole-5-carboxamide]	250 to 1000 nM
O=C(COc1ccc(Cl)c(Cl)c1)NC12CCC(NC(=O)c3ccc(C(F)F)cn3)(CC1)C[C@@H]2O [Compound 990, N-{(3S)-4-[2-(3,4-dichlorophenoxy)acetamido]-3-hydroxybicyclo[2.2.2]octan-1-yl}-5-(difluoromethyl)pyridine-2-carboxamide]	< 50 nM
O=C(COc1ccc(Cl)c(Cl)c1)NC12CCC(NC(=O)c3cc(CO)ccn3)(CC1)CC2 [Compound 991, N-{4-[2-(3,4-dichlorophenoxy)acetamido]bicyclo[2.2.2]octan-1-yl}-4-(hydroxymethyl)pyridine-2-carboxamide]	< 50 nM
COCc1cncc(C(=O)NC23CCC(NC(=O)COc4ccc(Cl)c(Cl)c4)(CC2)CC3)c1 [Compound 992, N-{4-[2-(3,4-dichlorophenoxy)acetamido]bicyclo[2.2.2]octan-1-yl}-5-(methoxymethyl)pyridine-3-carboxamide]	50 to 250 nM
O=C(COc1ccc(Cl)c(Cl)c1)NC12CCC(NC(=O)c3ccccn3)(CC1)CC2 [Compound 993, N-{4-[2-(3,4-dichlorophenoxy)acetamido]bicyclo[2.2.2]octan-1-yl}pyridine-2-carboxamide]	50 to 250 nM
O=C(COc1ccc(Cl)c(Cl)c1)NC12CCC(NC(=O)c3cccnc3)(CC1)CC2 [Compound 994, N-{4-[2-(3,4-dichlorophenoxy)acetamido]bicyclo[2.2.2]octan-1-yl}pyridine-3-carboxamide]	250 to 1000 nM
O=C(COc1ccc(Cl)c(F)c1)NC12CCC(NC(=O)c3cc(CO)ccn3)(CC1)CC2 [Compound 995, N-{4-[2-(4-chloro-3-fluorophenoxy)acetamido]bicyclo[2.2.2]octan-1-yl}-4-(hydroxymethyl)pyridine-2-carboxamide]	< 50 nM
O=C(COc1ccc(Cl)c(F)c1)NC12CCC(NC(=O)c3ccc(OC(F)(F)F)nc3)(CC1)CC2 [Compound 996, N-{4-[2-(4-chloro-3-fluorophenoxy)acetamido]bicyclo[2.2.2]octan-1-yl}-6-(trifluoromethoxy)pyridine-3-carboxamide]	> 2000 nM
O=C(COc1ccc(Cl)c(F)c1)NC12CCC(NC(=O)c3ccc(OC(F)(F)F)cn3)(CC1)CC2 [Compound 997, N-{4-[2-(4-chloro-3-fluorophenoxy)acetamido]bicyclo[2.2.2]octan-1-yl}-5-(trifluoromethoxy)pyridine-2-carboxamide]	50 to 250 nM
O=C(COc1ccc(Cl)c(F)c1)NC12CCC(NC(=O)c3ccc4cc(F)ccc4n3)(CC1)C[C@@H]2O [Compound 998, N-{(3S)-4-[2-(4-chloro-3-fluorophenoxy)acetamido]-3-hydroxybicyclo[2.2.2]octan-1-yl}-6-fluoroquinoline-2-carboxamide]	< 50 nM
O=C(COc1ccc(Cl)c(Cl)c1)NC12CCC(NC(=O)c3ccc4cc(F)ccc4n3)(CC1)C[C@@H]2O [Compound 999, N-{(3S)-4-[2-(3,4-dichlorophenoxy)acetamido]-3-hydroxybicyclo[2.2.2]octan-1-yl}-6-fluoroquinoline-2-carboxamide]	< 50 nM
O=C(COc1ccc(Cl)c(Cl)c1)NC12CCC(NC(=O)c3ccc(C(F)(F)F)o3)(CC1)C[C@@H]2O [Compound 1000, N-{(3S)-4-[2-(3,4-dichlorophenoxy)acetamido]-3-hydroxybicyclo[2.2.2]octan-1-yl}-5-(trifluoromethyl)furan-2-carboxamide]	< 50 nM
O=C(COc1ccc(Cl)c(Cl)c1)NC12CCC(NC(=O)c3ccc(OC(F)(F)F)nc3)(CC1)C[C@@H]2O [Compound 1001, N-{(3S)-4-[2-(3,4-dichlorophenoxy)acetamido]-3-hydroxybicyclo[2.2.2]octan-1-yl}-6-(trifluoromethoxy)pyridine-3-carboxamide]	< 50 nM
Cc1cc(C(=O)NC23CCC(NC(=O)COc4ccc(Cl)c(Cl)c4)(CC2)[C@@H](O)C3)sn1 [Compound 1002, N-{(3S)-4-[2-(3,4-dichlorophenoxy)acetamido]-3-hydroxybicyclo[2.2.2]octan-1-yl}-3-methyl-1,2-thiazole-5-carboxamide]	< 50 nM
O=C(COc1ccc(Cl)c(Cl)c1)NC12CCC(NC(=O)c3cc(CO)ccn3)(CC1)C[C@@H]2O [Compound 1003, N-{(3S)-4-[2-(3,4-dichlorophenoxy)acetamido]-3-hydroxybicyclo[2.2.2]octan-1-yl}-4-(hydroxymethyl)pyridine-2-carboxamide]	< 50 nM

Reference: US20240307382A1, “MODULATORS OF THE INTEGRATED STRESS PATHWAY” (Calico Life Sciences LLC, priority 2017, published 2024)
